This is an account of results in ChEMBL document CHEMBL3046544, “Inhibitory Activity of N-Substituted-2-piperidones with a 1, 4-Benzodioxan Ring on Germination of Barnyardgrass” (J Pestic Sci, 2001).

The test system of assay [1] is Echinochloa esculenta. Kind of assay: Herbicidal activity against Echinochloa esculenta assessed as inhibition of seed germination at 0.1 nM after 5 days relative to control. In kind it is functional. As to conditions: 120 h.
For assay [2], the system named is Echinochloa esculenta. Nature of the assay: Herbicidal activity against Echinochloa esculenta assessed as inhibition of seed germination at 100 nM after 5 days relative to control. It is filed as functional. The following applies: 120 h.
Assay [3] deals with Echinochloa esculenta. Nature of the assay: Herbicidal activity against Echinochloa esculenta assessed as inhibition of seed germination at 1 nM after 5 days relative to control. The following applies: 120 h. In kind it is functional.
The subject of assay [4] is Echinochloa esculenta. Nature of the assay: Herbicidal activity against Echinochloa esculenta assessed as inhibition of seed germination at 1000 nM after 5 days relative to control. In kind it is functional. As to conditions: 120 h.
In assay [5] the test system is Echinochloa esculenta. Nature of the assay: Herbicidal activity against Echinochloa esculenta assessed as inhibition of seed germination at 10 nM after 5 days relative to control. It is filed as functional. The following applies: 120 h.
In assay [6] the test system is Echinochloa esculenta. Nature of the assay: Herbicidal activity against Echinochloa esculenta assessed as inhibition of seed germination after 5 days relative to control. In kind it is functional, organism-based. The following applies: 120 h.
Assay [7] relates to Oryza sativa. Nature of the assay: Herbicidal activity against Oryza sativa (rice) assessed as inhibition of seed germination after 7 days relative to control. In kind it is functional, organism-based. The following applies: 168 h.
The test system of assay [8] is Oryza sativa. Nature of the assay: Herbicidal activity against Oryza sativa (rice) assessed as inhibition of seed germination at > 90 nM after 7 days relative to control. It is filed as functional, organism-based. The following applies: 168 h.

What is called inhibition is the relative decrease from the control value, in per cent. As for `O=C1NCCCC1C(O)c1ccc2c(c1)OCCO2` (mixture of isomers), the inhibition at 0.0001 µM with Echinochloa esculenta [1] was less than 49%. In the assay on Echinochloa esculenta [2], the inhibition at 0.1 µM is less than 49%. For the same molecule, in the assay on Echinochloa esculenta [3], the inhibition at 0.001 µM was less than 49%. The inhibition at 1 µM in the assay on Echinochloa esculenta [4] was more than 90%. In addition, in the assay on Echinochloa esculenta [5], the inhibition at 0.01 µM was less than 49%.

The IC50 is the concentration that inhibits the measured activity by half. As for `O=C1[C@@H]([C@@H](O)c2ccc3c(c2)OCCO3)CCCN1C/C=C/c1ccccc1` (relative stereo), the half-inhibitory concentration (IC50) turned out to be 0.8 nM with Echinochloa esculenta [6] and 8.1 nM in the assay on Oryza sativa [7].

For `O=C1[C@H]([C@@H](O)c2ccc3c(c2)OCCO3)CCCN1C/C=C/c1ccccc1` (relative stereo), the half-maximal inhibitory concentration (IC50) in the assay on Echinochloa esculenta [6] and in the assay with Oryza sativa [7] was more than 1000 nM throughout.

Turning to `O=C1C(C(O)c2ccc3c(c2)OCCO3)CCCN1Cc1ccccc1` (mixture of isomers), in the assay with Echinochloa esculenta [2], the inhibition at 0.1 µM is more than 90%. Further, the inhibition at 0.001 µM with Echinochloa esculenta [3] was less than 49%. Moreover, the results for the half-inhibitory concentration (IC50) with Echinochloa esculenta [6], in the assay with Oryza sativa [8] and in the assay with Oryza sativa [7] were 8.8 nM, 10 nM and more than 90 nM, respectively. Moreover, the inhibition at 1 µM with Echinochloa esculenta [4] was more than 90%. Further, in the assay on Echinochloa esculenta [5], the inhibition at 0.01 µM is more than 90%.

For `O=C1C(C(O)c2ccc3c(c2)OCCO3)CCCN1C/C=C/c1ccccc1` (mixture of isomers), the inhibition at 0.0001 µM in the assay with Echinochloa esculenta [1] is less than 49%. Further, the inhibition at 0.1 µM in the assay on Echinochloa esculenta [2] is more than 90%. In addition, in the assay on Echinochloa esculenta [3], the inhibition at 0.001 µM is less than 49%. Moreover, the figures for the half-maximal inhibitory concentration (IC50) with Echinochloa esculenta [6], in the assay on Oryza sativa [8] and with Oryza sativa [7] were 1.4 nM, 25 nM and more than 90 nM, respectively. Further, in the assay with Echinochloa esculenta [4], the inhibition at 1 µM is more than 90%. In addition, the inhibition at 0.01 µM with Echinochloa esculenta [5] is more than 90%.

Turning to `O=C1C(C(O)c2ccc3c(c2)OCCO3)CCCN1/C=C/c1ccccc1` (mixture of isomers), the inhibition at 0.0001 µM in the assay with Echinochloa esculenta [1] is less than 49%. Further, the inhibition at 0.1 µM with Echinochloa esculenta [2] was more than 90%. Further, the inhibition at 0.001 µM in the assay on Echinochloa esculenta [3] is less than 49%. Further, in the assay on Echinochloa esculenta [4], the inhibition at 1 µM is more than 90%. Besides, in the assay on Echinochloa esculenta [5], the inhibition at 0.01 µM amounted to 50%.

In the case of `O=C1[C@@H]([C@@H](O)c2ccc3c(c2)OCCO3)CCCN1Cc1ccccc1` (relative stereo), the half-maximal inhibitory concentration (IC50) in the assay with Echinochloa esculenta [6] was 4.5 nM; in the assay with Oryza sativa [8], 30 nM; with Oryza sativa [7], more than 90 nM.

`C=CCN1CCCC(C(O)c2ccc3c(c2)OCCO3)C1=O` (mixture of isomers): the inhibition at 0.0001 µM with Echinochloa esculenta [1] is less than 49%. In addition, in the assay with Echinochloa esculenta [2], the inhibition at 0.1 µM was less than 49%. The inhibition at 0.001 µM in the assay with Echinochloa esculenta [3] is less than 49%. Also, the inhibition at 1 µM in the assay on Echinochloa esculenta [4] stood at 50%. For the same molecule, the inhibition at 0.01 µM in the assay with Echinochloa esculenta [5] was less than 49%.

With `O=C1C(C(O)c2ccc(Cl)cc2)CCCN1Cc1ccccc1` (mixture of isomers), in the assay on Echinochloa esculenta [2], the inhibition at 0.1 µM is 50%. Moreover, the inhibition at 0.001 µM with Echinochloa esculenta [3] was less than 49%. The inhibition at 1 µM in the assay with Echinochloa esculenta [4] is more than 90%. In the assay on Echinochloa esculenta [5], the inhibition at 0.01 µM is less than 49%.

Consider `O=C1C(C(O)c2ccc3c(c2)OCC(COCc2ccccc2)O3)CCCN1Cc1ccccc1` (mixture of isomers), for which the inhibition at 0.1 µM in the assay on Echinochloa esculenta [2] turned out to be 50%. In addition, the inhibition at 0.001 µM with Echinochloa esculenta [3] was less than 49%. Moreover, the inhibition at 1 µM with Echinochloa esculenta [4] is more than 90%. Further, the inhibition at 0.01 µM in the assay with Echinochloa esculenta [5] is less than 49%.

With `O=C1C(C(O)c2ccc(Cl)cc2Cl)CCCN1Cc1ccccc1` (mixture of isomers), the inhibition at 0.1 µM with Echinochloa esculenta [2] is less than 49%. Besides, the inhibition at 0.001 µM with Echinochloa esculenta [3] is less than 49%. Besides, in the assay with Echinochloa esculenta [4], the inhibition at 1 µM came out at 50%. Moreover, the inhibition at 0.01 µM in the assay on Echinochloa esculenta [5] is less than 49%.

In the case of `COc1ccc(C(O)C2CCCN(Cc3ccccc3)C2=O)cc1OC` (mixture of isomers), the inhibition at 0.1 µM with Echinochloa esculenta [2] came out at 50%. Also, in the assay with Echinochloa esculenta [3], the inhibition at 0.001 µM is less than 49%. The inhibition at 1 µM in the assay on Echinochloa esculenta [4] was more than 90%. The inhibition at 0.01 µM in the assay on Echinochloa esculenta [5] is less than 49%.

As for `O=C1C(C(O)c2ccc3c(c2)OCCO3)CCCN1CC=C(c1ccccc1)c1ccccc1` (mixture of isomers), in the assay on Echinochloa esculenta [1], the inhibition at 0.0001 µM is less than 49%. In the assay with Echinochloa esculenta [2], the inhibition at 0.1 µM was more than 90%. Besides, the inhibition at 0.001 µM in the assay with Echinochloa esculenta [3] is less than 49%. The inhibition at 1 µM with Echinochloa esculenta [4] was more than 90%. Besides, the inhibition at 0.01 µM in the assay on Echinochloa esculenta [5] is more than 90%.

On to `O=C1C(C(O)c2ccccc2C(F)(F)F)CCCN1Cc1ccccc1` (mixture of isomers), for which the inhibition at 0.1 µM in the assay on Echinochloa esculenta [2] is less than 49%. In addition, the inhibition at 0.001 µM in the assay with Echinochloa esculenta [3] is less than 49%. Besides, the inhibition at 1 µM in the assay with Echinochloa esculenta [4] was 50%. Moreover, in the assay on Echinochloa esculenta [5], the inhibition at 0.01 µM is less than 49%.

Take `O=C1[C@H]([C@@H](O)c2ccc3c(c2)OCCO3)CCCN1Cc1ccccc1` (relative stereo): the IC50 in the assay with Echinochloa esculenta [6] and in the assay with Oryza sativa [7] was more than 1000 nM each time.

`COc1ccc(C(O)C2CCCN(Cc3ccccc3)C2=O)c(OC)c1` (mixture of isomers): the inhibition at 0.1 µM in the assay on Echinochloa esculenta [2] is less than 49%. The inhibition at 0.001 µM with Echinochloa esculenta [3] is less than 49%. In the assay with Echinochloa esculenta [4], the inhibition at 1 µM is less than 49%. Moreover, the inhibition at 0.01 µM in the assay with Echinochloa esculenta [5] was less than 49%.

Turning to `O=C1C(C(O)c2ccc(O)cc2)CCCN1Cc1ccccc1` (mixture of isomers), in the assay with Echinochloa esculenta [2], the inhibition at 0.1 µM was less than 49%. Also, the inhibition at 0.001 µM in the assay with Echinochloa esculenta [3] is less than 49%. In the assay with Echinochloa esculenta [4], the inhibition at 1 µM came out at 50%. The inhibition at 0.01 µM in the assay on Echinochloa esculenta [5] was less than 49%.

Regarding `O=C1C(C(O)c2ccncc2)CCCN1Cc1ccccc1` (mixture of isomers), the inhibition at 0.1 µM in the assay on Echinochloa esculenta [2] is less than 49%. In the assay with Echinochloa esculenta [3], the inhibition at 0.001 µM is less than 49%. For the same molecule, in the assay on Echinochloa esculenta [4], the inhibition at 1 µM was less than 49%. Also, the inhibition at 0.01 µM in the assay with Echinochloa esculenta [5] was less than 49%.

Consider `Cc1ccccc1C(O)C1CCCN(Cc2ccccc2)C1=O` (mixture of isomers), for which the inhibition at 0.1 µM in the assay with Echinochloa esculenta [2] is less than 49%. Also, the inhibition at 0.001 µM in the assay with Echinochloa esculenta [3] was less than 49%. In addition, the inhibition at 1 µM in the assay with Echinochloa esculenta [4] is more than 90%. Besides, the inhibition at 0.01 µM in the assay with Echinochloa esculenta [5] is less than 49%.

For the molecule `CC(C)C(O)C1CCCN(Cc2ccccc2)C1=O` (mixture of isomers), the inhibition at 0.1 µM in the assay on Echinochloa esculenta [2] was less than 49%. In addition, in the assay with Echinochloa esculenta [3], the inhibition at 0.001 µM is less than 49%. The inhibition at 1 µM with Echinochloa esculenta [4] was less than 49%. In addition, the inhibition at 0.01 µM in the assay on Echinochloa esculenta [5] is less than 49%.

Turning to `CC(C)CCC(O)C1CCCN(Cc2ccccc2)C1=O` (mixture of isomers), the inhibition at 0.1 µM in the assay on Echinochloa esculenta [2] was 50%. Besides, the inhibition at 0.001 µM in the assay with Echinochloa esculenta [3] is less than 49%. In addition, the inhibition at 1 µM with Echinochloa esculenta [4] was 50%. Further, the inhibition at 0.01 µM with Echinochloa esculenta [5] was less than 49%.

As to `O=C1C(C(O)c2ccccn2)CCCN1Cc1ccccc1` (mixture of isomers), the inhibition at 0.1 µM in the assay with Echinochloa esculenta [2] is less than 49%. Further, in the assay on Echinochloa esculenta [3], the inhibition at 0.001 µM was less than 49%. Besides, the inhibition at 1 µM in the assay on Echinochloa esculenta [4] was less than 49%. In addition, the inhibition at 0.01 µM with Echinochloa esculenta [5] is less than 49%.

For `O=C1C(C(O)c2ccc3c(c2)OCCO3)CCCN1c1ccccc1` (mixture of isomers), the inhibition at 0.0001 µM with Echinochloa esculenta [1] was less than 49%. For the same molecule, the inhibition at 0.1 µM in the assay with Echinochloa esculenta [2] is less than 49%. For the same molecule, the inhibition at 0.001 µM in the assay on Echinochloa esculenta [3] was less than 49%. Also, the inhibition at 1 µM with Echinochloa esculenta [4] is less than 49%. The inhibition at 0.01 µM in the assay with Echinochloa esculenta [5] was less than 49%.
